# Results published in patent publication US11219608B2, “Triple combination formulation for treatment of chronic pain” (Northwestern University, priority 2017, dated 2022).
# Entries after “also recorded” stand apart in the source; their conditions may differ.
# Tests used:
# [1] = test system: Npc1nmf164 mice; assay: Foamy macrophages in lungs of Npc1nmf164 mice (H&E); format: in vivo, mouse; details: Npc1nmf164 mice at 100 days of age, weekly i.p.
# Protocol: H&E stained micrographs showing foamy macrophages (indicated by black arrows) at 100 days of age in the lung of Npc1^+/nmf164 (healthy control) and Npc1^nmf164 (^Npc) mutant mice treated as indicated. Foamy macrophages were abundant in untreated Npc mice. […] Images were taken with 40× objective lens and are representative of 4 mice in each group. Number of mice in each group=4. For quantitation, 10-15 random fields were analyzed per lung section. Untr, Untreated.*p=0.02, TCF vs HPBCD, two-tailed Mann-Whitney test.
# Drug injection and organ harvest—The Triple combination formulation (TCF) is a mixture of vorinostat (50 mg/kg), HPBCD (2000 mg/Kg)), PEG 400 (45%) and DMSO (5%). Vorinostat (50 mg/Kg) was made in 5% DMSO and 45% PEG. HPBCD was a 20% (w/v) solution and given dose of 2000 mg/Kg. Detailed methodology on preparing drug solutions have been descried earlier^10. To enable comparative studies with prior regiments, all mice were given two doses of HPBCD at P7 and P15. From P21 onwards, mice received either HPBCD alone or TCF, as indicated. Vo was also initiated at P21. […] For lung histopathology, Npc1^nmf164 mice were analyzed at 100-109 days of age. Long-term safety was assessed for 8-10 months either in Npc^1+/nmf164 or commercially purchased wild type Balb/c mice. […]
# [2] = test system: Npc1nmf164 mice; assay: Efficacy in Npc1nmf164 mouse model of Niemann-Pick type C disease; format: in vivo
# Description: Animals—Npc1^nmf164 is a BALB/c strain carry a D1005G (A to G at cDNA bp 3163) mutation in the Npc1 gene 32. […] Homozygous mutants (Npc1^nmf164) along with wild-type littermates (Npc1^+/+), were generated in house by crossing heterozygous mutant (Npc1^+/nmf164) males and females and genotyped as previously described^10. Wild type Balb/c mice were procured from Envigo (Indianapolis, Ind., USA).
# Drug injection and organ harvest—The Triple combination formulation (TCF) is a mixture of vorinostat (50 mg/kg), HPBCD (2000 mg/Kg)), PEG 400 (45%) and DMSO (5%). Vorinostat (50 mg/Kg) was made in 5% DMSO and 45% PEG. HPBCD was a 20% (w/v) solution and given dose of 2000 mg/Kg. […] To enable comparative studies with prior regiments, all mice were given two doses of HPBCD at P7 and P15. From P21 onwards, mice received either HPBCD alone or TCF, as indicated. Vo was also initiated at P21. Injections were administered weekly through the intraperitoneal (i.p) route (and the injection volume used was 10 ml/Kg body weight across all treatment groups). For lung histopathology, Npc1^nmf164 mice were analyzed at 100-109 days of age. Long-term safety was assessed for 8-10 months either in Npc^1+/nmf164 or commercially purchased wild type Balb/c mice.
# [3] = literature, cited from earlier work
# [4] = test system: inflammatory pain model; details: intrathecal; cited from earlier work
# [5] = Quantification of Vo in lungs by mass spectrometry; format: in vivo, mouse; details: Npc1+/nmf164 mice
# Protocol: Npc1^+/nmf164 injected i.p. with Vo or TCF. At indicated times, animals sacrificed, perfused with PBS and Vo concentration in lungs were determined by mass spectrometry. n=5. h, hour. *p=0.02, TCF vs Vo 0.5 h, and **p=0.014 TCF vs Vo, 1 h, two tailed Student's t test.
# Quantification of Vo in lungs—Npc1^+/nmf164 mice (age 6-7 weeks) were given intraperitoneal injections of either Vo (50 mg/Kg in 45% PEG and 5% DMSO) or TCF (Vo 50 mg/Kg+HPBCD, 2000 mg/Kg+PEG, 45%+DMSO, 5%). At 30 min and 1 h post injection, mice were asphyxiated with CO2, blood was drawn by cardiac puncture and organs were perfused with 20 ml ice-cold PBS through the ventricle. Harvested lungs were cut into small pieces (4-6 mm2) and flash frozen in liquid nitrogen. The quantification of vorinostat was done by Metabolite Profiling Facility, Bindley Bioscience Center, Purdue University, Ind., USA. The detailed methods are as described earlier^10. Briefly, the tissue was homogenized using a Precelly bead homogenizer system utilizing ceramic CK 14 beads. 2 ng of deuterated internal standard (d5-Vorinostat, Toronto Research Chemicals, Ontario, Canada) was added to lung homogenate prior to liquid extraction with acetonitrile. Prior to analysis, samples were reconstituted in 100 μL of 50% water/50% acetonitrile. An Agilent 1200 Rapid Resolution liquid chromatography (HPLC) system coupled to an Agilent 6460 series triple quadrupole mass spectrometer (MS/MS) was used to analyze vorinostat. The data were obtained in positive electrospray ionization (ESI) mode and quantitated by monitoring the following transitions: for Vorinostat, 265→232 with a collision energy of 5 V and for d5-Vorinostat, 270→237 with collision energy of 5 V.
# [6] = test system: SNI; details: intrathecal injection; cited from earlier work
# [7] = test system: animal pain models; details: systemically applied; cited from earlier work
structure (smiles),measurement,setting,value
"CC(O)COC[C@H]1O[C@@H]2O[C@H]3[C@H](O)[C@@H](O)[C@@H](O[C@H]4[C@H](O)[C@@H](O)[C@@H](O[C@H]5[C@H](O)[C@@H](O)[C@@H](O[C@H]6[C@H](O)[C@@H](O)[C@@H](O[C@H]7[C@H](O)[C@@H](O)[C@@H](O[C@H]8[C@H](O)[C@@H](O)[C@@H](O[C@H]1[C@H](O)[C@H]2O)O[C@@H]8COCC(C)O)O[C@@H]7COCC(C)O)O[C@@H]6COCC(C)O)O[C@@H]5COCC(C)O)O[C@@H]4COCC(C)O)O[C@@H]3COCC(C)O (stereo partly drawn) [HPBCD, 2-hydroxypropyl-β-cyclodextrin]",accumulation of foamy macrophages in the lungs,[1],abundant macrophage accumulation; also recorded: no effect
same,benefit on Npc1nmf164 mouse survival,[2]; 2×HPBCD compared to 1×HPBCD alone,no additional benefit
same,blood brain barrier crossing,[3],does not cross the blood brain barrier
same,distribution to lung,[3]; systemic delivery,excluded from lung
"O=C(CCCCCCC(=O)Nc1ccccc1)NO [Vo, vorinostat]",accumulation of foamy macrophages in the lungs,[1],abundant macrophage accumulation; also recorded: no effect
same,benefit on Npc1nmf164 mouse survival,[2]; Vo in PEG,no benefit
same,histone acetylation in the spinal cord dorsal horn,[4],enhanced histone acetylation
same,hyperalgesia,[4],reduced hyperalgesia
same,reduction of Vo lung concentration from 30 min to 60 min,[5]; i.p.,65-70%
same,concentration at 30 min,"[5]; mouse, lung, ip, 50 mg/Kg, 30 min post i.p. injection",3200 ng/g
same,concentration at 60 min,"[5]; mouse, lung, ip, 50 mg/Kg, 60 min post i.p. injection",1000 ng/g
O=C(O)[C@H]1O[C@@H](Oc2cc3oc(-c4ccccc4)cc(=O)c3c(O)c2O)[C@H](O)[C@@H](O)[C@@H]1O [baicalin],histone acetylation,[6],reduces histone acetylation
same,pain behavior,[6],reverses pain behavior
COc1cc(/C=C/C(=O)CC(=O)/C=C/c2ccc(O)c(OC)c2)ccc1O [curcumin],analgesia,[7],modest analgesia
O=C(/C=C/c1ccc(CN(CCO)CCc2c[nH]c3ccccc23)cc1)NO [dacinostat],histone acetylation in the spinal cord dorsal horn,[4],enhanced histone acetylation
same,hyperalgesia,[4],reduced hyperalgesia
CC(/C=C/C(=O)NO)=C\[C@@H](C)C(=O)c1ccc(N(C)C)cc1 [trichostatin A],histone acetylation in the spinal cord dorsal horn,[4],enhanced histone acetylation
same,hyperalgesia,[4],reduced hyperalgesia
CCCC(CCC)C(=O)O [valproic acid],analgesia,[7],modest analgesia
